Results from PubChem BioAssay AID2305 (GlaxoSmithKline (GSK), 2010).

Each compound was assayed on P. falciparum 3D7 growth, pLDH absorbance (assay: P. falciparum 3D7 growth inhibition, dose response, strain 3D7 (AID 2305)).
With `CCNc1cc(C(=O)N[C@@H](Cc2ccccc2)[C@H](O)CN[C@@H]2CCc3ccccc32)cc(N2CCCC2=O)c1` the IC50 was 1020 nM.
In the case of `CC[C@H]1CN2CC[C@H]1C[C@H]2[C@H](O)c1cc(Cl)nc2ccc(OC)cc12`, the IC50 is reported as 580 nM.
Compound `O=[N+]([O-])c1cccc(CNCC2CCN(Cc3ccc(Cl)c(Cl)c3)CC2)c1` has an IC50 of 910 nM.
`Cc1cccc2[nH]c(-c3ccc(-c4ccc(CNCc5ccccc5)cc4)cc3)nc12` showed an IC50 of 510 nM.
In the case of `COC(=O)C(NC(=O)NC1CCN(c2ccnc(Nc3ccc(F)cc3)n2)C1)c1ccccc1` (configuration not stated), the IC50 is reported as 1050 nM.
In the case of `N#Cc1ccnc(-c2ccc(CNC3CCN(CC4Cn5c(=O)ccc6ccc(F)c4c65)CC3)cc2)c1` (configuration not stated), the IC50 is reported as 1220 nM.
In the case of `CC(C)[C@H](NC(=O)c1ccc(O)c(-c2ccc(Cl)c(Cl)c2)c1)C(=O)NC1CCCCCC1`, the IC50 is reported as 220 nM.
For `COc1ccc(Cn2cncc2CN(CCC(C)C)C(=O)c2ccc(Cl)nc2Cl)cc1`, the IC50 was 1040 nM.
With `CCCC(C)Nc1nc(C)cc(N[C@@H](Cc2ccccc2)C(=O)NCCc2ccccc2)n1` (some centres not stated) the IC50 was 950 nM.
`NC1=NC(c2ccccc2)N(c2ccccc2)C(N)=N1` (configuration not stated) showed an IC50 of 290 nM.
For `Cc1cccc2[nH]c(-c3cccc(-c4ccc(NC(=O)C5CC(=O)Nc6ccccc65)cc4)c3)nc12` (configuration not stated), the IC50 was 690 nM.
`c1ccc2c(NCCCCCCNc3c4c(nc5ccccc35)CCCC4)c3c(nc2c1)CCCC3` showed an IC50 of 200 nM.
For `CCCCc1ccc(NC(=O)Nc2ccc3c(c2)CCNCC3)cc1`, the IC50 was 580 nM.
In the case of `CCOc1ccc2c(NN=Cc3ccc(F)cc3)cc(C)nc2c1`, the IC50 is reported as 580 nM.
Compound `CC(C)CCN(Cc1cncn1Cc1cccc(C(F)(F)F)c1)C(=O)c1ccccc1C#N` has an IC50 of 610 nM.
For `CN(C)CCOc1cc(NC(=O)Nc2cccc3c(-c4ccncc4)cccc23)ccc1I`, the IC50 was 730 nM.
Compound `Clc1cccc(CNc2nc(NCCc3cnc[nH]3)nc(NC3CCCCC3)n2)c1` has an IC50 of 790 nM.
`O=C(O[C@H]1CN[C@H](C#Cc2cc3c(Nc4ccc(OCc5cccc(F)c5)c(Cl)c4)ncnc3s2)C1)N1CCCC1` was tested, and the IC50 was 710 nM.
`c1ccc2c(c1)ncn2-c1ccnc(Nc2ccncc2)n1` gave an IC50 of 650 nM.
`COc1cccc(NC(=O)c2cc([N+](=O)[O-])ccc2NC(=O)CN2CCc3ccccc3C2)c1` showed an IC50 of 590 nM.
In the case of `COc1ccc2ccccc2c1CNCCCCCCNCc1c(OC)ccc2ccccc12`, the IC50 is reported as 710 nM.
For `O=C(NCCCCCN1CCC(c2c[nH]c3ccccc23)C1)Nc1ccc(Cl)c(Cl)c1` (configuration not stated), the IC50 was 810 nM.
Work on `CN1CCN(c2ccnc3ccc(NC(=O)Nc4cccc5c(-c6ccncc6)cccc45)cc23)CC1` yielded an IC50 of 880 nM.
Compound `COc1cc(CNc2ccc(N3CCCC3)cc2)cc(Cl)c1OC` has an IC50 of 700 nM.
`Oc1ccc2[nH]c(-c3cccc(F)c3)nc2c1CN1CCC(N2CCCC2)CC1` was tested, and the IC50 was 180 nM.
`CN1CCCC1CCCOC(=O)c1ccc(N)cc1` (configuration not stated) was tested, and the IC50 was 920 nM.
Compound `O=C(NCCCCN1CCC(c2ccc3c(c2OCc2ccncc2)CCCC3)CC1)c1ccc(-c2ccc(C(F)(F)F)cc2)cc1` has an IC50 of 170 nM.
In the case of `CCN(CC)CCN(Cc1ccc(-c2ccc(C(F)(F)F)cc2)cc1)C(=O)Cn1c(CCc2cccc(F)c2F)nc(=O)c2ccc(C)cc21`, the IC50 is reported as 670 nM.
`CN1CCCC(CN2CCN(Cc3ccc(-c4ccc(-c5nc6ccccc6[nH]5)s4)cc3)CC2)C1` (configuration not stated) gave an IC50 of 130 nM.
`CC(C)Cc1cn(-c2nc(C(=N)N)cs2)c2cc(Cl)ccc12` was tested, and the IC50 was 150 nM.
Work on `CC(C)N1CCN(CCCCNc2c3ccccc3nc3ccccc23)CC1` yielded an IC50 of 540 nM.
In the case of `O=C(Nc1ccc(Oc2ccccc2)cc1)NC1CCC(CN2CCC(c3c[nH]c4ccccc34)CC2)CC1` (configuration not stated), the IC50 is reported as 570 nM.
In the case of `COc1cccc(NC(=O)c2cc(Br)cc(N3CCN(c4ccncc4)CC3)c2)c1`, the IC50 is reported as 770 nM.
Compound `CCc1cn(CCOC)c2ccc(C(=O)N[C@@H](Cc3ccccc3)[C@H](O)CNC(C)(C)CCCC(C)C)cc12` has an IC50 of 570 nM.
In the case of `CN1CCC(Oc2cc(NC(=O)Nc3ccc(-c4ccncc4)c(Cl)c3)ccc2Cl)CC1`, the IC50 is reported as 530 nM.
`O=C(Nc1cccc(-c2ccc(CN3CCCC3)cc2)c1)c1ccc(F)cc1` gave an IC50 of 1080 nM.
With `NC1CCCN(Cc2cccc(-c3ccc(-c4nc5ccc(F)cc5[nH]4)cc3)c2)C1` (configuration not stated) the IC50 was 570 nM.
Work on `CC(C)(C(=O)NCCC1CCN(CCCCCNC(=O)/C=C/c2ccc(Cl)c(Cl)c2)CC1)c1ccc(Cl)cc1` yielded an IC50 of 1280 nM.
`CNCc1ccc(-c2cccc(CNCc3ccc(-c4ccccc4)cc3)c2)c(C(=O)OC)c1` showed an IC50 of 980 nM.
`CN1CCN(CCCN(Cc2ccc(-c3cccc(CNCc4ccc5c(c4)OCO5)c3)cc2)C(=O)CCC2CCCC2)CC1` was tested, and the IC50 was 1010 nM.
With `O=C(NCc1ccc(F)cc1)c1cc(Br)cc(N2CCN(c3ccncc3)CC2)c1` the IC50 was 1230 nM.
`COc1ccc(-c2cccc(NC(=O)c3cccc(C#N)c3)c2)cc1CN(C)CCO` showed an IC50 of 820 nM.
`Cn1cc(C2CCN(CCCCNC(=O)c3ccc(-c4ccc(C(F)(F)F)cc4)c(CO)c3)CC2)c2ccccc21` showed an IC50 of 1000 nM.
Compound `CC(C)C[C@@H](C(=O)Nc1ccc(Cc2ccc(NC(=O)[C@H](CC(C)C)N(C)C(=O)OC(C)(C)C)cc2)cc1)N(C)C(=O)OC(C)(C)C` has an IC50 of 820 nM.
`O=C(CCCC(=O)Nc1ccc(C2=NCCN2)cc1)Nc1ccc(C2=NCCN2)cc1` gave an IC50 of 110 nM.
`Cn1cc(CN2CCC(CCOC(c3ccccc3)c3ccccc3)CC2)cn1` gave an IC50 of 260 nM.
For `N#Cc1cccc(NC(=O)Nc2ccc(-c3cccc(-c4nc5ccc(F)cc5[nH]4)c3)cc2)c1`, the IC50 was 270 nM.
Compound `NCC1(c2nc(-c3ccc(Cl)c(O)c3)c(-c3ccncc3)[nH]2)CCCCC1` has an IC50 of 740 nM.
`CN1CCN(CC2(Nc3nccc(NCc4ccc(Cl)cc4Cl)n3)CCCCC2)CC1` was tested, and the IC50 was 590 nM.
In the case of `CN(Cc1ccc(NC(=O)NC2CCN(C(=O)/C=C/c3ccc(Cl)c(Cl)c3)CC2)cc1)C1CCOCC1`, the IC50 is reported as 880 nM.
For `O=S(=O)(c1ccc(OC(F)(F)F)cc1)C1C[C@H]2CC[C@@H](C1)N2S(=O)(=O)c1ccc(Cl)c(C(F)(F)F)c1` (some centres not stated), the IC50 was 560 nM.
`Cc1[nH]c(C)c(-c2cc3ccccc3o2)c(=O)c1Cl` gave an IC50 of 1720 nM.
`CCN1CCN(c2cc(C)c3cc(NC(=O)c4ccc(OC)c([N+](=O)[O-])c4)ccc3n2)CC1` was tested, and the IC50 was 550 nM.
`Clc1cc(Nc2ccnc3ccc(Br)cc23)ccc1Oc1ccc(Cl)c2ccccc12` was tested, and the IC50 was 630 nM.
`COc1cc(-c2nc(-c3ccccc3)c(-c3ccc([N+](=O)[O-])cc3)[nH]2)cc(OC)c1O` showed an IC50 of 830 nM.
Compound `CCC(C)(C)c1ccc(OCCCC(=O)Nc2ccc(Cl)c([N+](=O)[O-])c2)c(C(C)(C)CC)c1` has an IC50 of 970 nM.
Work on `Oc1cc2c(cc1CN1CCN(Cc3cccs3)CC1)CCC2` yielded an IC50 of 840 nM.
For `O=C(/C=C/c1ccc(Cl)c(Cl)c1)N1CCC(CN2CC[C@H](c3c[nH]c4ccccc34)[C@@H](O)C2)CC1`, the IC50 was 810 nM.
For `COc1cccc(C(O)CNc2ccnc(Nc3cccc(-c4csc(C)n4)c3)n2)c1` (configuration not stated), the IC50 was 790 nM.
`CN1CCCN(Cc2cccc(-c3ccc(CNC(=O)c4cccc(Cl)c4)c(F)c3)c2)CC1` gave an IC50 of 190 nM.
Compound `CN1CCN(C(C(=O)NCc2cc(Cl)cc(Cl)c2)c2ccc(Nc3cccc(C(F)(F)F)c3)cc2)CC1` (configuration not stated) has an IC50 of 1120 nM.
With `Fc1ccc2nccc(NN=Cc3ccccc3Cl)c2c1` the IC50 was 920 nM.
Compound `O=C(NC1CCN(Cc2ccccc2O)C1)c1ccc(-c2ccccc2)cc1` (configuration not stated) has an IC50 of 840 nM.
`CN(C)c1ccc(-c2csc(C(=O)NC3CCN(CCC(C)(C)C)C3)c2)cc1` (configuration not stated) gave an IC50 of 970 nM.
`CC(C)COc1ccc(Cl)cc1Cc1ccc(-c2nc3ccc(CCN(C)C)cc3[nH]2)o1` was tested, and the IC50 was 980 nM.
`CC(C)CN(c1nc(C(=O)NNC(=O)[C@H](CC2CC2)NC(=O)c2cc3cc(OCCN(C)C)ccc3o2)cs1)C1CC1` gave an IC50 of 1030 nM.
`CCN1CCC(N(Cc2ccc(-c3ccc(C(F)(F)F)cc3)cc2)C(=O)Cn2c(CCc3cccc(F)c3F)cc(=O)c3c2CCC3)CC1` was tested, and the IC50 was 970 nM.
For `N#Cc1ccc(N(CCNS(=O)(=O)c2cc(Br)c(Cl)s2)Cc2ccccc2C(F)(F)F)cc1C(F)(F)F`, the IC50 was 860 nM.
Work on `O=C(NCC1CCC(C(=O)NCCN2CCCCC2)CC1)c1ccc(O)c(-c2ccc(Cl)c(Cl)c2)c1` (configuration not stated) yielded an IC50 of 1170 nM.
`COc1ccc(CCn2c(=N)c(C(=O)NC3CCCC3)cc3c(=O)n4ccccc4nc32)cc1` gave an IC50 of 680 nM.
For `COc1c(CNCCCCCCNCc2cc(Cl)c3ccccc3c2OC)cc(Cl)c2ccccc12`, the IC50 was 940 nM.
`C=CCOc1ccc(Cc2cnc(N)nc2N)cc1CCC` gave an IC50 of 1020 nM.
Work on `Cc1cccc2[nH]c(-c3ccc(-c4cccc(CNCc5ccccc5)c4)s3)nc12` yielded an IC50 of 740 nM.
In the case of `CCC(C)c1ccc(-n2c(Nc3ccccc3)nc3cc(S(N)(=O)=O)ccc32)cc1` (configuration not stated), the IC50 is reported as 1060 nM.
In the case of `COC(=O)c1cccc(NC(=O)NCCNc2ccnc(Nc3ccc(F)cc3)n2)c1`, the IC50 is reported as 840 nM.
`CCc1c(C(=O)NC2CCC(N3CCC(c4ccccc4C)CC3)CC2)[nH]c2ccc(Br)cc12` (configuration not stated) was tested, and the IC50 was 930 nM.
For `CCCc1ccc(Nc2nc(C)cc(N(CC)CCCN3CCCCC3)n2)cc1`, the IC50 was 540 nM.
Work on `O=C(Nc1ccc(Cn2nc(Cl)c(N3CCNCC3)cc2=O)cc1)Nc1ccc(-c2ccccc2)cc1` yielded an IC50 of 750 nM.
With `CC(CNC(=O)[C@H]1CNCCN1C(=O)CCCc1ccccc1)c1ccccc1` (some centres not stated) the IC50 was 920 nM.
In the case of `Cn1c(=N)cc(-c2ccc(Br)cc2)c2c(=O)[nH]c(N)nc21`, the IC50 is reported as 1130 nM.
`Cc1cccc2[nH]c(-c3ccc(-c4ccc(CNCc5ccc(CN)cc5)cc4)cc3)nc12` gave an IC50 of 720 nM.
With `Cc1c(CNCCCNc2nc3ccncc3[nH]2)sc(Br)c1Br` the IC50 was 1040 nM.
`C=C[C@@H]1CN2CC[C@H]1C[C@H]2[C@H](O)c1cc(-c2ccc(Cl)cc2)nc2ccc(OC)cc12` gave an IC50 of 30 nM.
With `COc1ccccc1C1CCN(C2CCC(NC(=O)/C=C/c3ccc(F)c(F)c3)CC2)CC1` (configuration not stated) the IC50 was 1320 nM.
In the case of `CCCCCCC(C)(C)c1cc(O)c2c(c1)OC(C)(C)c1ccncc1-2`, the IC50 is reported as 180 nM.
`Cc1cccc2[nH]c(-c3ccc(-c4cccc(NC(=O)Cc5cnc[nH]5)c4)cc3)nc12` was tested, and the IC50 was 900 nM.
With `COc1ccc2ncc(F)c(CCN3C[C@H](CNCc4ccc5oc(=O)ccc5c4)[C@H](O)C3)c2n1` the IC50 was 950 nM.
With `CC(C)NCc1cccc(-c2cccc(NC(=O)c3ccc(C#N)cc3)c2)c1` the IC50 was 650 nM.
Work on `COc1cc(Nc2nc(N)c3cc(OC)c(OC)cc3n2)cc(OC)c1` yielded an IC50 of 270 nM.
In the case of `CCCC1N=C(N)N=C(N)N1c1ccc(C)cc1` (configuration not stated), the IC50 is reported as 100 nM.
Compound `N#Cc1ccc(CCNc2nccc(-c3cccc(CN4CCNCC4)c3)n2)cc1` has an IC50 of 1250 nM.
`CC(C)CCN(Cc1cncn1Cc1cccc(C(F)(F)F)c1)C(=O)c1cncc(-c2ccccc2)c1` was tested, and the IC50 was 770 nM.
Work on `O=C(c1cc(C(=O)Nc2ccccc2)c(=O)n(-c2ccccc2)c1)c1cc(Cl)ccc1O` yielded an IC50 of 390 nM.
For `Cc1ccc2c(NN=CC=Cc3ccccc3)cc(C)nc2c1`, the IC50 was 1120 nM.
`Cc1cc(=O)c(-c2cccc(Oc3ccc(Cl)cc3)c2)c(C)[nH]1` showed an IC50 of 740 nM.
`Cc1ccc(C=C2SC(=Nc3ccccc3)NC2=O)c(C)c1` was tested, and the IC50 was 560 nM.
In the case of `O=C(Nc1cc2cc(-c3ccc(CN4CCCCC4)cc3)ccc2n2cnnc12)NC1CCCC1`, the IC50 is reported as 1520 nM.
